Experimental findings from US10258603B2 (priority 2014, dated 2019) are described below.

A word on the IC50: it is the concentration needed to halve the response being measured.

T1 sequence (Q9BXF3 424-538 limits assumed): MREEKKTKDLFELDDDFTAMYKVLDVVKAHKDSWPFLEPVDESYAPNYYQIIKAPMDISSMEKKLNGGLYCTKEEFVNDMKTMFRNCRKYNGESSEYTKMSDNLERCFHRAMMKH

One assay has as its target T1, CECR2 (Homo sapiens, UniProt Q9BXF3).
T1 construct: 424-538 was cloned, expressed, and purified to homogeneity; Flag; made in house
Nature of the assay: CECR2 TR-FRET Binding Assay. Conditions: IC50 (uM). From the text: IC50 Measurements for Inhibitors Using CECR2 TR-FRET Binding Assay
Take `CC(c1ccccc1)N1CCC(N(C)C(=O)c2cn(C)c(=O)c3[nH]ccc23)CC1` (stereo not drawn) [Example 214]: the IC50 is 0.66 µM.

Staying with this assay, now noted: read-out: IC50.
Take `CC(C)N1CCC(C)(CNC(=O)c2cn(C)c(=O)c3[nH]ccc23)CC1` [Example 212, N-[(1-isopropyl-4-methyl-4-piperidyl)methyl]-6-methyl-7-oxo-1H-pyrrolo[2,3-c]pyridine-4-carboxamide]: the IC50 was determined as 1.7 µM.

Turning to `CN(C(=O)c1cn(C)c(=O)c2[nH]ccc12)C1CCN(Cc2ccc(C#N)cc2)CC1` [Example 213, N-[1-[(4-cyanophenyl)methyl]-4-piperidyl]-N,6-dimethyl-7-oxo-1H-pyrrolo[2,3-c]pyridine-4-carboxamide], the IC50 stood at 0.71 µM.

For `CN(C(=O)c1cn(C)c(=O)c2[nH]ccc12)C1CCN(Cc2ccccc2F)CC1` [Example 216], the IC50 was determined as 1.2 µM.

Turning to `Cc1ccc(CN2CCC(N(C)C(=O)c3cn(C)c(=O)c4[nH]ccc34)CC2)cc1` [Example 218], the IC50 was 0.77 µM.

For the compound `CN(C(=O)c1cn(C)c(=O)c2[nH]ccc12)C1CCN(Cc2cccc(C#N)c2)CC1` [Example 220], the IC50 was determined as 1.1 µM.

As to `COc1ccc(CN2CCC(N(C)C(=O)c3cn(C)c(=O)c4[nH]ccc34)CC2)cc1` [Example 221], the IC50 was found to be 0.67 µM.

Regarding `CN(C(=O)c1cn(C)c(=O)c2[nH]ccc12)C1CCN(Cc2ccccc2Cl)CC1` [Example 223], the IC50 came out at 0.97 µM.

Take `CN(C(=O)c1cn(C)c(=O)c2[nH]ccc12)C1CCN(Cc2cccc(Cl)c2)CC1` [Example 224]: the IC50 was found to be 0.78 µM.

As to `COCCN1CCC(N(C)C(=O)c2cn(C)c(=O)c3[nH]ccc23)CC1` [Example 225], the IC50 was determined as 1.4 µM.

As for `CN(C(=O)c1cn(C)c(=O)c2[nH]ccc12)C1CCN(CCC2CC2)CC1` [Example 226], the IC50 came out at 0.7 µM.

Turning to `CCN(C(=O)c1cn(C)c(=O)c2[nH]ccc12)C1CCN(C(C)C)CC1` [Example 227], the IC50 is 2 µM.

Consider `CN(CC1CCN(CCC2CCCCC2)CC1)C(=O)c1cn(C)c(=O)c2[nH]ccc12` [Example 229], for which the IC50 is 0.64 µM.

As for `CN(CC1CCN(CC2CCCOC2)CC1)C(=O)c1cn(C)c(=O)c2[nH]ccc12` (stereo not drawn) [Example 230], the IC50 is 0.79 µM.

Regarding `COCCCN1CCC(CN(C)C(=O)c2cn(C)c(=O)c3[nH]ccc23)CC1` [Example 232], the IC50 stood at 1.2 µM.

In the case of `CN(CC1CCN(CC2CCC2)CC1)C(=O)c1cn(C)c(=O)c2[nH]ccc12` [Example 233], the IC50 was determined as 0.77 µM.

Take `CN(CC1CCN(CC2CCOCC2)CC1)C(=O)c1cn(C)c(=O)c2[nH]ccc12` [Example 234]: the IC50 turned out to be 1 µM.

Turning to `CC(C)N1CCCC(NC(=O)c2cn(C)c(=O)c3[nH]ccc23)CC1` (stereo not drawn) [Example 241], the IC50 came to 1.1 µM.

Regarding `CC(C)N1C2CCC1CC(N(C)C(=O)c1cn(C)c(=O)c3[nH]ccc13)C2` (stereo not drawn) [Example 242], the half-maximal inhibitory concentration (IC50) turned out to be 1.4 µM.

`CC(C)N1CCC(N(C(=O)c2cn(C)c(=O)c3[nH]ccc23)C2CC2)CC1` [Example 243]: the IC50 stood at 2 µM.

With `C=CCn1cc(C(=O)N(C)[C@H]2[C@@H]3CN(c4ccnc(C#N)n4)C[C@@H]32)c2cc[nH]c2c1=O` [Example 249, 6-allyl-N-[(1S,5R)-3-(2-cyanopyrimidin-4-yl)-3-azabicyclo[3.1.0]hexan-6-yl]-N-methyl-7-oxo-1H-pyrrolo[2,3-c]pyridine-4-carboxamide], the IC50 worked out at 4.8 µM.

For `C=CCn1cc(C(=O)N(C)C2C3CN(c4ccncn4)CC32)c2cc[nH]c2c1=O` (stereo not drawn) [Example 251], the IC50 turned out to be 6.2 µM.

Regarding `CN(C(=O)c1cn(C)c(=O)c2[nH]ccc12)C1CCN(CCc2ccccc2F)CC1` [Example 253], the IC50 came out at 0.98 µM.

Regarding `CN(C(=O)c1cn(C)c(=O)c2[nH]ccc12)C1CCN(CCc2ccc(Cl)cc2)CC1` [Example 254], the IC50 is 0.7 µM.

On to `C=CCn1cc(C(=O)N(C)C2CCN(c3cc(C4CC4)nc(C)n3)CC2)c2cc(C)[nH]c2c1=O` [Example 266], for which the IC50 amounted to 0.03 µM.

Turning to `C=CCn1cc(C(=O)N(C)C2CCN(c3cc(C)nc(C4CC4)n3)CC2)c2cc(C)[nH]c2c1=O` [Example 267, 6-allyl-N-(1-(2-cyclopropyl-6-methylpyrimidin-4-yl)piperidin-4-yl)-N,2-dimethyl-7-oxo-6,7-dihydro-1H-pyrrolo[2,3-c]pyridine-4-carboxamide], the IC50 came out at 0.017 µM.

Consider `C=CCn1cc(C(=O)N(C)C2CCN(c3cc(-c4cccnc4C)ncn3)CC2)c2cc(C)[nH]c2c1=O` [Example 268, 6-allyl-N,2-dimethyl-N-[1-[6-(2-methyl-3-pyridyl)pyrimidin-4-yl]-4-piperidyl]-7-oxo-1H-pyrrolo[2,3-c]pyridine-4-carboxamide], for which the IC50 stood at 0.023 µM.

For `C=CCn1cc(C(=O)N(C)C2CCN(c3cc(-c4ccco4)ncn3)CC2)c2cc(C)[nH]c2c1=O` [Example 269], the IC50 was determined as 0.033 µM.

Turning to `C=CCn1cc(C(=O)N(C)C2CCN(c3cc(-c4ccccc4Cl)ncn3)CC2)c2cc(C)[nH]c2c1=O` [Example 270], the IC50 came out at 0.018 µM.

As to `C=CCn1cc(C(=O)N(C)C2CCN(c3cc(-c4ccccn4)ncn3)CC2)c2cc(C)[nH]c2c1=O` [Example 271, 6-allyl-N,2-dimethyl-7-oxo-N-[1-[6-(2-pyridyl)pyrimidin-4-yl]-4-piperidyl]-1H-pyrrolo[2,3-c]pyridine-4-carboxamide], the IC50 stood at 0.011 µM.

For the compound `C=CCn1cc(C(=O)N(C)C2CCN(c3cc(-c4ncccc4C)ncn3)CC2)c2cc(C)[nH]c2c1=O` [Example 272], the IC50 turned out to be 0.035 µM.

Take `C=CCn1cc(C(=O)N(C)C2CCCc3ccccc32)c2cc(C)[nH]c2c1=O` (stereo not drawn) [Example 275, 6-allyl-N,2-dimethyl-7-oxo-N-tetralin-1-yl-1H-pyrrolo[2,3-c]pyridine-4-carboxamide]: the IC50 amounted to 0.11 µM.

In the case of `C=CCn1cc(C(=O)N(C)C2CCCc3ncccc32)c2cc(C)[nH]c2c1=O` (stereo not drawn) [Example 276], the IC50 amounted to 0.038 µM.

In the case of `C=CCn1cc(C(=O)N(C)C2CCOc3ccccc32)c2cc(C)[nH]c2c1=O` (stereo not drawn) [Example 277], the IC50 stood at 0.053 µM.

`C=CCn1cc(C(=O)N(C)C2CCOc3cc(F)ccc32)c2cc(C)[nH]c2c1=O` (stereo not drawn) [Example 278]: the half-inhibitory concentration (IC50) worked out at 0.057 µM.

Take `C=CCn1cc(C(=O)N(C)C2CCCc3cnccc32)c2cc(C)[nH]c2c1=O` (stereo not drawn) [Example 283, 6-allyl-N,2-dimethyl-7-oxo-N-(5,6,7,8-tetrahydroisoquinolin-5-yl)-1H-pyrrolo[2,3-c]pyridine-4-carboxamide]: the IC50 stood at 0.044 µM.

As for `C=CCn1cc(C(=O)N(C)C2CCCc3ccc(F)cc32)c2cc(C)[nH]c2c1=O` (stereo not drawn) [Example 284], the IC50 stood at 0.053 µM.

In the case of `C=CCn1cc(C(=O)N(C)C2CCCc3c(C)cccc32)c2cc(C)[nH]c2c1=O` (stereo not drawn) [Example 285], the half-inhibitory concentration (IC50) was 0.15 µM.

A further assay deals with T2, TAF1-BD2 (Homo sapiens, UniProt P21675).
T2 sequence (P21675 1525-1656): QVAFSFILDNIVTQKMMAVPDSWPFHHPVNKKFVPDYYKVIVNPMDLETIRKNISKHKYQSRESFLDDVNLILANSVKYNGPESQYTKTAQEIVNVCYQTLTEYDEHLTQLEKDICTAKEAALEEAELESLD
The assay can be described thus: TAF1-BD2 TR-FRET Binding Assay. Conditions: Assay: TAF-1.
Procedure: Specifically, in a 384 well ProxiPlate TAF1-BD2 (6 nM final) was combined with biotin-ligand (50 nM final) in 50 mM HEPES (pH 7.5), 50 mM NaCl, 1 mM TCEP, 0.01% (w/v) BSA, and 0.008% (w/v) Brij-35 either in the presence of DMSO (final 0.2% DMSO) or compound dilution series in DMSO. After 10 minutes incubation at room temperature, a mixture Eu-W1024 Anti-6×His antibody (Perkin Elmer AD0110) and SureLight™ Allophycocyanin-Streptavidin (APC-SA, Perkin Elmer CR130-100) were added to a final concentrations of 0.2 nMolar antibody and 25 nMolar APC-SA, respectively. After twenty minutes of equilibration, the plates were read on an Envision instrument and IC50s calculated using a four parameter non-linear curve fit.
As for `CC(C)N1CC[C@@H](NC(=O)c2cn(C)c(=O)c3[nH]ccc23)[C@H](F)C1` (relative stereo) [Example 209], the IC50 amounted to 0.58 µM.

`CC(C)N1CC[C@H](NC(=O)c2cn(C)c(=O)c3[nH]ccc23)[C@H](C)C1` (relative stereo) [Example 238] registered an IC50 of 2.1 µM.

Turning to `CC(C)N1CC[C@H](NC(=O)c2cn(C)c(=O)c3[nH]ccc23)[C@H](F)C1` (relative stereo) [Example 240], the IC50 amounted to 3.4 µM.

`CN1CCC(NC(=O)c2cn(C)c(=O)c3[nH]ccc23)CC1` [Example 4, 6-methyl-N-(1-methyl-4-piperidyl)-7-oxo-1H-pyrrolo[2,3-c]pyridine-4-carboxamide] had an IC50 of 0.32 µM.

In turn, `CC=CCn1cc(C(=O)NCC2CN(C(=O)OC(C)(C)C)C2)c2cc[nH]c2c1=O` [Example 10, tert-butyl 3-[[(6-but-2-enyl-7-oxo-1H-pyrrolo[2,3-c]pyridine-4-carbonyl)amino]methyl]azetidine-1-carboxylate] showed a 50% inhibitory concentration (IC50) of 4.7 µM.

The compound `CC=CCn1cc(C(=O)NCCNC(C)=O)c2cc[nH]c2c1=O` [Example 14, N-(2-acetamidoethyl)-6-but-2-enyl-7-oxo-1H-pyrrolo[2,3-c]pyridine-4-carboxamide] gave an IC50 of 3.7 µM.

For `CC=CCn1cc(C(=O)NC(C)(C)C)c2cc[nH]c2c1=O` [Example 15, 6-but-2-enyl-N-tert-butyl-7-oxo-1H-pyrrolo[2,3-c]pyridine-4-carboxamide], the concentration for half-maximal inhibition (IC50) turned out to be 0.97 µM.

Compound `CC=CCn1cc(C(=O)NCCN2CCN(Cc3ccccc3)CC2)c2cc[nH]c2c1=O` [Example 16, N-[2-(4-benzylpiperazin-1-yl)ethyl]-6-but-2-enyl-7-oxo-1H-pyrrolo[2,3-c]pyridine-4-carboxamide] showed an IC50 of 6 µM.

In turn, `CC=CCn1cc(C(=O)NCCCNC(=O)OCc2ccccc2)c2cc[nH]c2c1=O` [Example 17, benzyl N-[3-[(6-but-2-enyl-7-oxo-1H-pyrrolo[2,3-c]pyridine-4-carbonyl)amino]propyl]carbamate] came in with an IC50 of 3.6 µM.

The compound `Cn1cc(C(=O)NCCC2CCN(CC(F)(F)F)CC2)c2cc[nH]c2c1=O` [Example 20, 6-methyl-7-oxo-N-[2-[1-(2,2,2-trifluoroethyl)-4-piperidyl]ethyl]-1H-pyrrolo[2,3-c]pyridine-4-carboxamide] yielded an IC50 of 1.5 µM.

`CN1CCCC(CNC(=O)c2cn(C)c(=O)c3[nH]ccc23)C1` (stereo not drawn) [Example 24, 6-methyl-N-[(1-methyl-3-piperidyl)methyl]-7-oxo-1H-pyrrolo[2,3-c]pyridine-4-carboxamide] showed an IC50 of 0.15 µM.

As to `CN1CCC(CCNC(=O)c2cn(C)c(=O)c3[nH]ccc23)CC1` [Example 25, 6-methyl-N-[2-(1-methyl-4-piperidyl)ethyl]-7-oxo-1H-pyrrolo[2,3-c]pyridine-4-carboxamide], the IC50 came out at 0.69 µM.

In turn, `CCN1CCC(CN(C)C(=O)c2cn(C)c(=O)c3[nH]ccc23)C1` (stereo not drawn) [Example 27, N-[(1-ethylpyrrolidin-3-yl)methyl]-N,6-dimethyl-7-oxo-1H-pyirolo[2,3-c]pyridine-4-carboxamide] displayed an IC50 of 6.9 µM.
